From patent US8710095B2, “Drugs for prophylaxis or mitigation of taxane-induced neurotoxicity” (Bionumerik Pharmaceuticals, Inc., priority 2002, dated 2014) come the findings set out here.

Molecules are shown by their SMILES.

The test system of this series is female Wistar rats. As to the kind of experiment: Paclitaxel-induced abnormal thermoesthesia, latent period for pseudo pain reactions (hot water bath 45° C.). The series is classed as in vivo, rat. Particulars: paclitaxel alone. The protocol:
Paclitaxel was intravenously administered at a dose of 6 mg/kg once daily to female Wistar rats (8 rats per group) (the initial dosage date was defined as day 0). Treatment was repeated five times every other day.
The efficacy of 2,2′-dithiobis ethane sulfonate on the abnormal thermoesthesia occurring in response to the paclitaxel therapy was assessed using, as an index, a latent period for pseudo pain reactions. […] Each pseudo pain reaction-related latent period was measured on the day before the initial paclitaxel dosage (day −1, pretreatment), and daily for three days from the next day after the final paclitaxel dosage (from days 9 to 11, post-treatment), i.e., totally four times.
2,2′-dithiobis ethane sulfonate was, dissolved in water for injection to make its concentration 200 mg/ml upon use and the 2,2′-dithiobis ethane sulfonate solution thus prepared was intravenously administered at the dose of 500 mg/kg or 1,000 mg/kg immediately before the paclitaxel administration.

Take `CC(=O)O[C@H]1C(=O)[C@@]2(C)[C@H]([C@H](OC(=O)c3ccccc3)[C@]3(O)C[C@H](OC(=O)[C@H](O)[C@@H](NC(=O)c4ccccc4)c4ccccc4)C(C)=C1C3(C)C)[C@]1(OC(C)=O)CO[C@@H]1C[C@@H]2O` [Paclitaxel, paclitaxel, reference compound]: the latent period reads like this: (day 9 post-treatment) 18.9 ± 1.4 s; (day 10 post-treatment) 19.9 ± 2.2 s; (day 11 post-treatment) 19.4 ± 2.4 s; (prior to the initiation of paclitaxel administration (pretreatment)) 9.4 ± 1.0 s. Besides, the “latent periods compared with control groups” value (p<0.01, student's t-test or Man-Whitney U-test) is on record as “significantly elongated”.
